Test results reported in patent US20140315754A1, “METHODS AND COMPOSITIONS FOR ASSESSING AND TREATING CANCER” (The Board of Regents of the University of Texas System, priority 2013, published 2014).

Columns and labels:
[1] = tested on: 5′ promoter of DCLK1 gene (L-DCLK1 expression); assay: RT-PCR expression of L/S DCLK1 in HCT-116 cells before or after 5-Aza-Cytidine; format: cell-based, human; conditions: FIG. 12B
Description: FIG. 12 (A) Methylation of CpG sites in 5′-promoter of DCLK1-gene in cell lines/human samples; NC=normal colon; CRC=colorectal cancer. (B) Expression of L/S DCLK1 in HCT-116 cells before (−) or after (+) treatment with 5-Aza-Cytidine by RT-PCR.
Recent reports have confirmed DNA methylation of 5′ promoter of DCLK1 gene in CRCs (Vedeld et al. Epigenetics 2014, 9(3).30). Thus, DNA methylation of 5′ promoter leads to epigenetic silencing and loss of L expression in cancer cells/tumors.

[2] = tested on: DCLK1 positive cancer cells (CSCs); assay: In vitro relapse assay (spheroid re-growth from cancer stem cells); format: cell-based
Description: In certain embodiments an expression vector can be used to provide an inhibitory RNA to a cell in vitro or in vivo. […] Thus accumulating evidence from literature and from our laboratory strongly supports a critical role of DCLK1 in cancer stem cell biology.

COL3A1 promoter = assay: Promoter activity of COL3A1 constructs in HCT116 cells; format: cell-based, human; conditions: C-Luciferase reporter, FIG. 14
Description: FIG. 14 HTS Bioassay: (A) RT-PCR analysis of COL3A1 in ShC and ShD clones (5′upstream nucleotide sequence of COL3A1 gene is provided in SEQ ID NO:10). (B) The map of the promoter constructs fused to secretable Cypridina Luciferase (C-Luciferase). (C) The flow diagram of the method used to measure the promoter activity of COL3A1 constructs in HCT116 cells. (D) The promoter activity of COL3A1 constructs in HCT116 cells.
The inventors developed bioassays for […] (HTS), using promoter-reporter constructs of genes identified as being down stream of DCLK1-S, but not DCLK1-L (FIG. 15). As an example of the bioassays developed, the inventors generated promoter-reporter constructs of COL3A1 gene in pCLuc-BASIC-2 vector, based on published sequence of the Col3A1 gene (FIG. 14A-14C) and transiently transfected ShC/ShD clones of HCT-116 cells, as per protocol shown in FIG. 14D. […] Data obtained from the HTS assays with the specific bioassays will help identify specific molecules from available chemical libraries, which will then allow the development of safe and effective drugs for inhibiting tumorigenic/metastatic potential of cancer stem cells, while sparing the functions of normal stem cells in intestinal crypts, as a non-toxic treatment strategy for colorectal/pancreatic cancers, and other cancers as well, which are found to be dependent on the expression of DCLK1-S.

Row | Compound | expression of L-DCLK1 [1] | relapse/re-growth of spheroids [2] | promoter activity of COL3A1 constructs (COL3A1 promoter)
1 | Nc1ncn([C@@H]2O[C@H](CO)[C@@H](O)[C@H]2O)c(=O)n1 [5 aza cytidine] | re-expression of L-DCLK1 | – | –
2 | COc1cc(/C=C/C(=O)CC(=O)/C=C/c2ccc(O)c(OC)c2)ccc1O [curcumin] | – | underwent autophagic survival and re-grew (relapse) as spheroids | –
3 | shRNA: DCLK1 targeting shRNA; shrna sequence ATCGTTCTGTTATTGTAGC in pGZIP Lentiviral vector (ShD clones) (pGZIP lentiviral vector) | – | eliminated relapse/re-growth of spheroids | loss of promoter activity
